Like-named read-outs stand apart in the source and are kept apart here. Where a SMILES comes first, the peptide text is derived from it. Bridges are numbered along the chain shown (N, C = ends). [ ]: non-standard residue; d: D form. The star is where a group is joined. hPhe(3,5-F2-4-CF3) = N[C@@H](CCc1cc(F)c(C(F)(F)F)c(F)c1)C(=O)O; hPhe(3-Cl-4-CF3) = N[C@@H](CCc1ccc(C(F)(F)F)c(Cl)c1)C(=O)O; NPrPhe(4-CF3) = CCCN[C@@H](Cc1ccc(C(F)(F)F)cc1)C(=O)O; NMePhe(4-CF3) = CN[C@@H](Cc1ccc(C(F)(F)F)cc1)C(=O)O; NMeGly(cPent) = CN[C@H](C(=O)O)C1CCCC1; Pro(4,4-F2) = O=C(O)[C@@H]1CC(F)(F)CN1; NMeD = CN[C@@H](CC(=O)O)C(=O)O; NMeL = CN[C@@H](CC(C)C)C(=O)O; Morpholide = C1CN(*)CCO1; Ac5c = NC1(C(=O)O)CCCC1; Aze = O=C(O)[C@@H]1CCN1; Ac4c = NC1(C(=O)O)CCC1; Sar = CNCC(=O)O
Assays:
[1] = target: GDP-bound HRAS wild-type protein (Homo sapiens, UniProt P01112); experiment: Binding to HRAS by surface plasmon resonance (SPR), Single Cycle Kinetics; details: SPR, GDP-bound HRAS wild-type protein vs GDP-bound KRAS wild-type protein
Sequence of GDP-bound HRAS wild-type protein (P01112 whole entry): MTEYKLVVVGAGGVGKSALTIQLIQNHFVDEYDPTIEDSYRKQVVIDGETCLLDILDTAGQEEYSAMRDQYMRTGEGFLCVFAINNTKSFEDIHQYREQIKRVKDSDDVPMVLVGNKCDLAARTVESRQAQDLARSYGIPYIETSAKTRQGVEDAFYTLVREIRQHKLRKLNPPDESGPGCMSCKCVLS

[2] = target: GDP-bound KRAS wild-type protein (Homo sapiens, UniProt P01116); experiment: Binding to KRAS by surface plasmon resonance (SPR), Single Cycle Kinetics; details: GDP-bound KRAS wild-type protein, read-out: KRAS KD
Sequence of GDP-bound KRAS wild-type protein (P01116 whole entry): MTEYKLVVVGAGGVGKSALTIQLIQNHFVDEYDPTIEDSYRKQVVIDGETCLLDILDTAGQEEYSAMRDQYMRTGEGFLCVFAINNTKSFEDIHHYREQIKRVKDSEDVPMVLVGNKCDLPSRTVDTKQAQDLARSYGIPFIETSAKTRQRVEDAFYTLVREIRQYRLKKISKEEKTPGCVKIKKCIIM

[3] = target: GDP-bound NRAS wild-type protein (Homo sapiens, UniProt P01111); experiment: Binding to NRAS by surface plasmon resonance (SPR), Single Cycle Kinetics; details: SPR, GDP-bound NRAS wild-type protein vs GDP-bound KRAS wild-type protein
Sequence of GDP-bound NRAS wild-type protein (P01111 whole entry): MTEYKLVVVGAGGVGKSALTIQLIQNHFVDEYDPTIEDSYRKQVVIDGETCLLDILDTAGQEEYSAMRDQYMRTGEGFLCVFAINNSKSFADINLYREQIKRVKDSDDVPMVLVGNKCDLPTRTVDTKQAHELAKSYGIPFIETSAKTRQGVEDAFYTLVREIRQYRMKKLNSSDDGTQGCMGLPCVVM

[4] = SPR Single Cycle Kinetics, 1:1 binding model

SMILES	Kd ([2]; SPR, Single Cycle Kinetics) [nM]	Kd [2, 4] [nM]	HRAS/KRAS (ratio of KD value for HRAS to KD value for KRAS) [1]	NRAS/KRAS (ratio of KD value for NRAS to KD value for KRAS) [3]	HRAS/KRAS (ratio of KD value with respect to HRAS to KD value with respect to KRAS) [1]	NRAS/KRAS (ratio of KD value with respect to NRAS to KD value with respect to KRAS) [3]	also measured
CC[C@H](C)[C@@H]1NC(=O)[C@H](CC(C)C)N(C)C(=O)C[C@@H](C(=O)N2CCOCC2)N(C)C(=O)[C@H](C2CCCCC2)N(C)C(=O)C2(CCCC2)NC(=O)[C@@H]2CCCN2C(=O)[C@H](CCc2cc(F)c(C(F)(F)F)c(F)c2)NC(=O)CN(C)C(=O)[C@H](Cc2ccc(C(F)(F)F)cc2)N2CCCCC[C@@H](C2=O)N(C)C(=O)CN(C)C1=O [PP0505]	–	10	–	–	B (a compound having 3 or more and less than 10 is denoted as B)	B (a compound having 3 or more and less than 10 is denoted as B)	–
CC[C@H](C)[C@@H]1NC(=O)[C@H](CC(C)C)N(C)C(=O)C[C@@H](C(=O)N2CCOCC2)N(C)C(=O)[C@H](C2CCCC2)N(C)C(=O)C2(CCCC2)NC(=O)[C@H](C)N(CC)C(=O)[C@H](CCc2cc(F)c(C(F)(F)F)c(F)c2)NC(=O)CN(C)C(=O)[C@H](Cc2ccc(C(F)(F)F)cc2)N2CCCCC[C@@H](C2=O)N(C)C(=O)CN(C)C1=O [PP0515]	–	29	–	–	B (a compound having 3 or more and less than 10 is denoted as B)	B (a compound having 3 or more and less than 10 is denoted as B)	–
CCO[C@@H]1C[C@H]2C(=O)NC3(CCC3)C(=O)N(C)[C@@H](C(CC)CC)C(=O)N(C)[C@H](C(=O)N(C)C)CC(=O)N(C)[C@@H](CC3CCCC3)C(=O)N[C@@H]([C@@H](C)CC)C(=O)N(C)CC(=O)N(C)[C@H]3C/C=C\CCN(C3=O)[C@@H](Cc3ccc(F)cc3C)C(=O)N(C)CC(=O)N[C@@H](CCc3cc(F)c(C(F)(F)F)c(F)c3)C(=O)N2C1 [PP1516]	–	–	–	–	–	–	HRAS/KRAS (ratio of KD value for HRAS to KD value for KRAS) ([1]; KD ratio class): B (a compound having 3 or more and less than 10 is denoted as B); Kd ([2]; SPR, Single Cycle Kinetics, 1:1 binding model): 0.98 nM; NRAS/KRAS (ratio of KD value for NRAS to KD value for KRAS) ([3]; KD ratio class): A (a compound having 10 or more and less than 20 is denoted as A)
CC[C@H](C)[C@@H]1NC(=O)[C@H](CC(C)C)N(C)C(=O)C[C@@H](C(=O)N2CCOCC2)N(C)C(=O)[C@H](C2CCCC2)N(C)C(=O)C2(CCCC2)NC(=O)[C@@H]2CCCN2C(=O)[C@H](CCc2ccc(C(F)(F)F)c(Cl)c2)NC(=O)CN(C)C(=O)[C@H](Cc2ccc(C(F)(F)F)cc2)N(C)C(=O)CN(C)C(=O)CN(C)C1=O [PP0076] ([NMeL]I[Sar][Sar][NMePhe(4-CF3)][Sar][hPhe(3-Cl-4-CF3)]P[Ac5c][NMeGly(cPent)][NMeD]-Morpholide; lactam N-11)	–	0.064	C (A compound having a KD ratio of 0.1 or more and less than 3 is denoted as C)	C (A compound having a KD ratio of 0.1 or more and less than 3 is denoted as C)	–	–	–
CCO[C@@H]1C[C@H]2C(=O)NC3(CCC3)C(=O)N(C)[C@@H](C3CCCC3)C(=O)N(C)[C@H](C(=O)N3CCOCC3)CC(=O)N(C)[C@@H](CC(C)(C)C)C(=O)N[C@@H]([C@@H](C)CC)C(=O)N(C)CC(=O)N(C)[C@H]3CCCCN(C3=O)[C@@H](Cc3ccc(C(F)(F)F)cc3)C(=O)N(C)CC(=O)N[C@@H](CCc3cc(F)c(C(F)(F)F)c(F)c3)C(=O)N2C1 [PP0714]	–	0.047	–	–	B (a compound having 3 or more and less than 10 is denoted as B)	C (A compound having a KD ratio of 0.1 or more and less than 3 is denoted as C)	–
CCCN1C(=O)CN(C)C(=O)CN(C)C(=O)[C@H]([C@@H](C)CC)NC(=O)[C@H](CC(C)C)N(C)C(=O)C[C@@H](C(=O)N(C)C)NC(=O)[C@H](C2CCCC2)N(C)C(=O)C2(CCC2)NC(=O)[C@@H]2CC(F)(F)CN2C(=O)[C@H](CCc2ccc(C(F)(F)F)c(Cl)c2)NC(=O)CN(C)C(=O)[C@@H]1Cc1ccc(C(F)(F)F)cc1 [PP0358] ([NMeL]I[Sar][Sar][NPrPhe(4-CF3)][Sar][hPhe(3-Cl-4-CF3)][Pro(4,4-F2)][Ac4c][NMeGly(cPent)]D-NMe2; lactam N-11)	–	0.33	C (A compound having a KD ratio of 0.1 or more and less than 3 is denoted as C)	B (a compound having 3 or more and less than 10 is denoted as B)	–	–	–
CCCN1C(=O)CN(C)C(=O)[C@@H]2CCN2C(=O)[C@H]([C@@H](C)CC)NC(=O)[C@H](CC(C)C)N(C)C(=O)C[C@@H](C(=O)N(C)C)NC(=O)[C@H](C2CCCC2)N(C)C(=O)C2(CCCC2)NC(=O)[C@@H]2CCCN2C(=O)[C@H](CCc2ccc(C(F)(F)F)c(Cl)c2)NC(=O)CN(C)C(=O)[C@@H]1Cc1ccc(C(F)(F)F)cc1 [PP0373] ([NMeL]I[Aze][Sar][NPrPhe(4-CF3)][Sar][hPhe(3-Cl-4-CF3)]P[Ac5c][NMeGly(cPent)]D-NMe2; lactam N-11)	–	1.2	B (a compound having 3 or more and less than 10 is denoted as B)	B (a compound having 3 or more and less than 10 is denoted as B)	–	–	–
CC[C@H](C)[C@@H]1NC(=O)[C@H](CC(C)C)N(C)C(=O)C[C@@H](C(=O)N2CCOCC2)N(C)C(=O)[C@H](C2CCCC2)N(C)C(=O)C2(CCC2)NC(=O)[C@@H]2C[C@@H](C(F)(F)F)CN2C(=O)[C@H](CCc2cc(F)c(C(F)(F)F)c(F)c2)NC(=O)CN(C)C(=O)[C@H](Cc2ccc(C(F)(F)F)cc2)N2CCCCC[C@@H](C2=O)N(C)C(=O)CN(C)C1=O [PP0818]	1.7	–	B (a compound having 3 or more and less than 10 is denoted as B)	B (a compound having 3 or more and less than 10 is denoted as B)	–	–	–
CCCN1C(=O)CN(C)C(=O)CN(C)C(=O)[C@H]([C@@H](C)CC)NC(=O)[C@H](CC(C)C)N(C)C(=O)C[C@@H](C(=O)N(C)C)N(C)C(=O)[C@H](C2CCCC2)N(C)C(=O)C2(CCCC2)NC(=O)[C@@H]2CCCN2C(=O)[C@H](CCc2cc(F)c(C(F)(F)F)c(F)c2)NC(=O)CN(C)C(=O)[C@@H]1Cc1ccc(C(F)(F)F)cc1 [PP0788] ([NMeL]I[Sar][Sar][NPrPhe(4-CF3)][Sar][hPhe(3,5-F2-4-CF3)]P[Ac5c][NMeGly(cPent)][NMeD]-NMe2; lactam N-11)	–	0.054	–	–	C (A compound having a KD ratio of 0.1 or more and less than 3 is denoted as C)	B (a compound having 3 or more and less than 10 is denoted as B)	–
C=CC[C@H]1C(=O)N[C@@H]([C@@H](C)CC)C(=O)N(C)CC(=O)N(C)[C@H]2CCCCCN(C2=O)[C@@H](Cc2ccc(C(F)(F)F)cc2)C(=O)N(C)CC(=O)N[C@@H](CCc2cc(F)c(C(F)(F)F)c(F)c2)C(=O)N2C[C@H](OCC)C[C@H]2C(=O)NC2(CCC2)C(=O)N(C)[C@@H](C2CCCC2)C(=O)N(C)[C@H](C(=O)N(C)C)CC(=O)N1C [PP0665]	–	0.24	–	–	B (a compound having 3 or more and less than 10 is denoted as B)	B (a compound having 3 or more and less than 10 is denoted as B)	–

Continued, in another order:

Kd ([2]; SPR, Single Cycle Kinetics) [nM]	Kd [2, 4] [nM]	SMILES	HRAS/KRAS (ratio of KD value for HRAS to KD value for KRAS) [1]	NRAS/KRAS (ratio of KD value for NRAS to KD value for KRAS) [3]	HRAS/KRAS (ratio of KD value with respect to HRAS to KD value with respect to KRAS) [1]	NRAS/KRAS (ratio of KD value with respect to NRAS to KD value with respect to KRAS) [3]	also measured
1.2	–	CCO[C@@H]1C[C@H]2C(=O)NC3(CC(C)(C)C3)C(=O)N(C)[C@@H](C3CCCC3)C(=O)N(C)[C@H](C(=O)N3CCOCC3)CC(=O)N(C)[C@@H](COC)C(=O)N[C@@H]([C@@H](C)CC)C(=O)N(C)CC(=O)N(C)[C@H]3CCCCCN(C3=O)[C@@H](Cc3ccc(C(F)(F)F)cc3)C(=O)N(C)CC(=O)N[C@@H](CCc3cc(F)c(C(F)(F)F)c(F)c3)C(=O)N2C1 [PP0844]	B (a compound having 3 or more and less than 10 is denoted as B)	B (a compound having 3 or more and less than 10 is denoted as B)	–	–	–
0.088	–	CCO[C@@H]1C[C@H]2C(=O)NC3(CCCC3)C(=O)N(C)[C@@H](C3CCCC3)C(=O)N(C)[C@H](C(=O)N3CCOCC3)CC(=O)N(C)[C@@H](CC(C)C)C(=O)N[C@@H]([C@@H](C)CC)C(=O)N(C)CC(=O)N(C)[C@H]3C[C@@H](C)CCN(C3=O)[C@@H](Cc3ccc(C(F)(F)F)cc3)C(=O)N(C)CC(=O)N[C@@H](CCc3cc(F)c(C(F)(F)F)c(F)c3)C(=O)N2C1 [PP1024]	B (a compound having 3 or more and less than 10 is denoted as B)	B (a compound having 3 or more and less than 10 is denoted as B)	–	–	–
0.6	–	CCO[C@@H]1C[C@H]2C(=O)NC3(CCC3)C(=O)N(C)[C@@H](C3CCCC3)C(=O)N(C)[C@H](C(=O)N3CCOCC3)CC(=O)N(C)[C@@H](COC)C(=O)N[C@@H]([C@@H](C)CC)C(=O)N3CC[C@H]3C(=O)N(C)[C@H]3CCCCCN(C3=O)[C@@H](Cc3ccc(C(F)(F)F)cc3)C(=O)N(C)CC(=O)N[C@@H](CCc3cc(F)c(C(F)(F)F)c(F)c3)C(=O)N2C1 [PP0863]	B (a compound having 3 or more and less than 10 is denoted as B)	B (a compound having 3 or more and less than 10 is denoted as B)	–	–	–
0.88	–	CCO[C@@H]1C[C@H]2C(=O)NC3(CCC3)C(=O)N(C)[C@@H](C3CCCC3)C(=O)N(CC)[C@H](C(=O)N(C)C)CC(=O)N(C)[C@@H](CC)C(=O)N[C@@H]([C@@H](C)CC)C(=O)N(C)CC(=O)N(C)[C@H]3C/C=C\CCN(C3=O)[C@@H](Cc3ccc(C(F)(F)F)cc3)C(=O)N(C)CC(=O)N[C@@H](CCc3cc(F)c(C(F)(F)F)c(F)c3)C(=O)N2C1 [PP0980]	B (a compound having 3 or more and less than 10 is denoted as B)	A (a compound having 10 or more and less than 20 is denoted as A)	–	–	–

Source: patent US20240158446A1, “CYCLIC COMPOUND HAVING SELECTIVE INHIBITORY ACTION ON KRAS OVER HRAS AND NRAS” (CHUGAI SEIYAKU KABUSHIKI KAISHA, priority 2021, published 2024)
